Earlier results on seven molecules are cited in publication PMC8513935.

Data set [1] can be described thus: derived by the authors as gas->solvent minus gas->water (a hypothetical dry solvent; the ESI), not a two-phase measurement.
Data set [2] is described as follows: log P octanol/water from commercial databases, averaged (the ESI). The following applies: Octanol (wet), 25 C.
A short description of data set [3]: experimental, compiled by the authors from the literature (the ESI cites the sources).

As to `CCCCCCl`, the log K of transfer, water to solvent was 3.51 log10 K in data set [1] (Acetone, 25 C); 3.46 log10 K in data set [1] (Di-n-butyl ether, 25 C); 3.17 log10 K in data set [1] (Hexadecane, 25 C); 3.45 log10 K in data set [1] (Hexane, 25 C); 4.11 log10 K in data set [1] (Tetrahydrofuran, 25 C); 3.11 log10 K in data set [2]. Also, the log K of transfer, gas to solvent was 3.51 log10 K in data set [3] (Di-n-butyl ether, 25 C); 3.22 log10 K in data set [3] (Hexadecane, 25 C); 3.5 log10 K in data set [3] (Hexane, 25 C); 3.56 log10 K in data set [3] (Propanone, 25 C); 4.16 log10 K in data set [3] (Tetrahydrofuran, 25 C); 0.05 log10 K in data set [3] (Water, 25 C).
Turning to `Cc1ccc(C)cc1`, the log K of transfer, water to solvent in data set [1] (1,2-Dichloroethane, 25 C) was 3.78 log10 K; in data set [1] (2-Methylpropan-1-ol, 25 C), 3.03 log10 K; in data set [1] (CCl4, 25 C) it was 3.61 log10 K; in data set [1] (Cyclohexane, 25 C) it was 3.27 log10 K; in data set [1] (Ethanol, 25 C), 3.14 log10 K; in data set [1] (Hexadecane, 25 C) it was 3.25 log10 K. The log K of transfer, water to solvent in data set [1] (Octan-1-ol(dry), 25 C) was 3.2 log10 K; in data set [2] it was 3.15 log10 K. Moreover, the log K of transfer, gas to solvent in data set [3] (1,2-Dichloroethane, 25 C) was 4.37 log10 K; in data set [3] (2-Methylpropan-1-ol, 25 C), 3.62 log10 K; in data set [3] (CCl4, 25 C), 4.2 log10 K; in data set [3] (Cyclohexane, 25 C), 3.86 log10 K; in data set [3] (Ethanol, 25 C) it was 3.73 log10 K; in data set [3] (Hexadecane, 25 C), 3.84 log10 K. Further, the log K of transfer, gas to solvent in data set [3] (Octan-1-ol, 25 C) was 3.79 log10 K; in data set [3] (Water, 25 C) it was 0.59 log10 K.
As to `CCCCCl`, the log K of transfer, water to solvent was 3.13 log10 K in data set [1] (1,2-Dichloroethane, 25 C); 2.61 log10 K in data set [1] (2-Methylpropan-1-ol, 25 C); 2.59 log10 K in data set [1] (2-Methylpropan-2-ol, 25 C); 3 log10 K in data set [1] (Acetone, 25 C); 2.61 log10 K in data set [1] (Butan-2-ol, 25 C); 3.04 log10 K in data set [1] (CCl4, 25 C). The log K of transfer, water to solvent in data set [1] (Chlorobenzene, 25 C) is 3.07 log10 K; in data set [1] (Decan-1-ol, 25 C), 2.57 log10 K; in data set [1] (Di-n-butyl ether, 25 C), 2.89 log10 K; in data set [1] (Diethyl Ether, 25 C), 3.09 log10 K; in data set [1] (Hexadecane, 25 C) it was 2.6 log10 K; in data set [1] (Hexane, 25 C), 2.83 log10 K. Moreover, the log K of transfer, water to solvent in data set [1] (Octan-1-ol(dry), 25 C) is 2.6 log10 K; in data set [1] (Propan-1-ol, 25 C), 2.51 log10 K; in data set [2] it was 2.64 log10 K. The log K of transfer, gas to solvent in data set [3] (1,2-Dichloroethane, 25 C) is 3.25 log10 K; in data set [3] (2-Methylpropan-1-ol, 25 C), 2.73 log10 K; in data set [3] (2-Methylpropan-2-ol, 25 C), 2.71 log10 K; in data set [3] (Butan-2-ol, 25 C) it was 2.73 log10 K; in data set [3] (CCl4, 25 C) it was 3.16 log10 K; in data set [3] (Chlorobenzene, 25 C), 3.19 log10 K. Further, the log K of transfer, gas to solvent in data set [3] (Decan-1-ol, 25 C) is 2.69 log10 K; in data set [3] (Di-n-butyl ether, 25 C) it was 3.01 log10 K; in data set [3] (Diethyl Ether, 25 C), 3.21 log10 K; in data set [3] (Hexadecane, 25 C) it was 2.72 log10 K; in data set [3] (Hexane, 25 C), 2.95 log10 K; in data set [3] (Octan-1-ol, 25 C), 2.72 log10 K. For the same molecule, the log K of transfer, gas to solvent was 2.63 log10 K in data set [3] (Propan-1-ol, 25 C); 3.12 log10 K in data set [3] (Propanone, 25 C); 0.12 log10 K in data set [3] (Water, 25 C).
Take `CCCCCCCCCCCCCCCCO`: the log K of transfer, water to solvent in data set [1] (Decan-1-ol, 25 C) is 7.84 log10 K; in data set [1] (Di-n-butyl ether, 25 C) it was 7.61 log10 K; in data set [1] (Diethyl Ether, 25 C) it was 7.89 log10 K; in data set [1] (Hexadecane, 25 C), 6.63 log10 K; in data set [1] (Hexan-1-ol, 25 C), 7.92 log10 K; in data set [1] (Octan-1-ol(dry), 25 C) it was 7.88 log10 K. In addition, the log K of transfer, water to solvent in data set [1] (Propan-2-ol, 25 C) was 8.03 log10 K; in data set [2], 7.32 log10 K. The log K of transfer, gas to solvent is 9.86 log10 K in data set [3] (Decan-1-ol, 25 C); 9.63 log10 K in data set [3] (Di-n-butyl ether, 25 C); 9.91 log10 K in data set [3] (Diethyl Ether, 25 C); 8.65 log10 K in data set [3] (Hexadecane, 25 C); 9.93 log10 K in data set [3] (Hexan-1-ol, 25 C); 9.9 log10 K in data set [3] (Octan-1-ol, 25 C). The log K of transfer, gas to solvent in data set [3] (Propan-2-ol, 25 C) was 10 log10 K; in data set [3] (Water, 25 C) it was 2.02 log10 K.
Regarding `C`, the log K of transfer, water to solvent in data set [1] (Acetone, 25 C) is 1.24 log10 K; in data set [1] (Butan-1-ol, 25 C) it was 1.15 log10 K; in data set [1] (CCl4, 25 C), 1.32 log10 K; in data set [1] (Chlorobenzene, 25 C), 1.13 log10 K; in data set [1] (Decan-1-ol, 25 C) it was 1.05 log10 K; in data set [1] (Diethyl Ether, 25 C), 1.48 log10 K. Moreover, the log K of transfer, water to solvent in data set [1] (Ethanol, 25 C) is 1.17 log10 K; in data set [1] (Heptan-1-ol, 25 C), 1.11 log10 K; in data set [1] (Hexadecane, 25 C) it was 1.14 log10 K; in data set [1] (Hexan-1-ol, 25 C) it was 1.12 log10 K; in data set [1] (Hexane, 25 C), 1.44 log10 K; in data set [1] (Methanol, 25 C), 1.19 log10 K. Besides, the log K of transfer, water to solvent in data set [1] (Octan-1-ol(dry), 25 C) was 1.08 log10 K; in data set [1] (Pentan-1-ol, 25 C) it was 1.13 log10 K; in data set [1] (Perfluoroalkane, 25 C) it was 1.42 log10 K; in data set [1] (Propan-1-ol, 25 C) it was 1.17 log10 K; in data set [1] (Propan-2-ol, 25 C) it was 1.13 log10 K; in data set [1] (Tetrahydrofuran, 25 C), 1.28 log10 K. In data set [2], the log K of transfer, water to solvent is 1.09 log10 K.
As for `CO`, the log K of transfer, water to solvent in data set [1] (1,2-Dichloroethane, 25 C) is -1.58 log10 K; in data set [1] (2-Methylpropan-1-ol, 25 C) it was -0.58 log10 K; in data set [1] (2-Methylpropan-2-ol, 25 C) it was -0.35 log10 K; in data set [1] (3-Methylbutan-1-ol, 25 C), -0.672 log10 K; in data set [1] (Acetone, 25 C), -0.71 log10 K; in data set [1] (Acetonitrile, 25 C), -0.81 log10 K. Further, the log K of transfer, water to solvent is -1.85 log10 K in data set [1] (Benzene, 25 C); -0.72 log10 K in data set [1] (Butan-1-ol, 25 C); -0.45 log10 K in data set [1] (Butan-2-ol, 25 C); -0.93 log10 K in data set [1] (Butanone, 25 C); -1.06 log10 K in data set [1] (Butyronitrile, 25 C); -2.24 log10 K in data set [1] (CCl4, 25 C). The log K of transfer, water to solvent in data set [1] (Chlorobenzene, 25 C) is -2.07 log10 K; in data set [1] (Chloroform, 25 C), -1.33 log10 K; in data set [1] (Cyclohexane, 25 C) it was -2.77 log10 K; in data set [1] (Decan-1-ol, 25 C) it was -1.21 log10 K; in data set [1] (Di-n-butyl ether, 25 C), -1.8 log10 K; in data set [1] (Dichloromethane, 25 C), -1.45 log10 K. Besides, the log K of transfer, water to solvent was -1.26 log10 K in data set [1] (Diethyl Ether, 25 C); -0.34 log10 K in data set [1] (Ethanol, 25 C); -2.77 log10 K in data set [1] (Hexadecane, 25 C); -2.59 log10 K in data set [1] (Hexane, 25 C); -0.14 log10 K in data set [1] (Methanol, 25 C); -0.9 log10 K in data set [1] (Octan-1-ol(dry), 25 C). Further, the log K of transfer, water to solvent was -0.67 log10 K in data set [1] (Pentan-1-ol, 25 C); -0.59 log10 K in data set [1] (Propan-1-ol, 25 C); -0.46 log10 K in data set [1] (Propan-2-ol, 25 C); -0.9 log10 K in data set [1] (Tetrahydrofuran, 25 C); -2.14 log10 K in data set [1] (Toluene, 25 C); -0.755 log10 K in data set [2].
`c1ccccc1`: the log K of transfer, water to solvent in data set [1] (1,2-Dichloroethane, 25 C) was 2.69 log10 K; in data set [1] (2-Methylpropan-1-ol, 25 C) it was 2.09 log10 K; in data set [1] (2-Methylpropan-2-ol, 25 C), 2.09 log10 K; in data set [1] (Acetone, 25 C) it was 2.58 log10 K; in data set [1] (Acetonitrile, 25 C), 2.43 log10 K; in data set [1] (Benzene, 25 C) it was 2.71 log10 K. For the same molecule, the log K of transfer, water to solvent in data set [1] (Butan-1-ol, 25 C) is 2.24 log10 K; in data set [1] (Butan-2-ol, 25 C), 2.14 log10 K; in data set [1] (Butanone, 25 C), 2.66 log10 K; in data set [1] (Butyronitrile, 25 C), 2.6 log10 K; in data set [1] (CCl4, 25 C) it was 2.61 log10 K; in data set [1] (Chlorobenzene, 25 C), 2.61 log10 K. Besides, the log K of transfer, water to solvent in data set [1] (Chloroform, 25 C) was 2.76 log10 K; in data set [1] (Cyclohexane, 25 C) it was 2.3 log10 K; in data set [1] (Cyclohexanone, 25 C), 2.67 log10 K; in data set [1] (Decan-1-ol, 25 C), 2 log10 K; in data set [1] (Di-n-butyl ether, 25 C), 2.38 log10 K; in data set [1] (Dichloromethane, 25 C) it was 2.89 log10 K. Also, the log K of transfer, water to solvent in data set [1] (Ethanol, 25 C) is 2.15 log10 K; in data set [1] (Heptan-1-ol, 25 C) it was 2.18 log10 K; in data set [1] (Hexadecane, 25 C), 2.15 log10 K; in data set [1] (Hexane, 25 C), 2.31 log10 K; in data set [1] (Methanol, 25 C), 2.14 log10 K; in data set [1] (Octan-1-ol(dry), 25 C), 2.17 log10 K. The log K of transfer, water to solvent in data set [1] (Pentan-1-ol, 25 C) is 2.2 log10 K; in data set [1] (Propan-1-ol, 25 C), 2.15 log10 K; in data set [1] (Propan-2-ol, 25 C), 2.04 log10 K; in data set [1] (Propionitrile, 25 C) it was 2.6 log10 K; in data set [1] (Tetrahydrofuran, 25 C) it was 2.85 log10 K; in data set [1] (Toluene, 25 C), 2.64 log10 K. For the same molecule, the log K of transfer, water to solvent in data set [2] is 2.08 log10 K.
